The source of these data is article PMC5428521, “Identification of a Novel, Small Molecule Partial Agonist for the Cyclic AMP Sensor, EPAC1” (Scientific Reports, 2017).

For one test, the system named is protein kinase A (PKA). In words: PKA kinase activity assay in HEK293T cell extracts. It is filed as biochemical. The note with it: 1 mM cAMP, compound 0.1 to 100 µM. The method, then: PKA activity was measured directly in cell extracts using the PKA Kinase Activity Assay Kit (Abcam) following the manufacturer's instructions. […] Cells were washed in ice-cold PBS containing phosphatase inhibitors, scrapped into Eppendorf tubes and centrifuged at 200 × g at 4 °C for 5 minutes. Supernatants were discarded and the cell pellet was re-suspended in Complete Lysis Buffer containing 1 mM DTT, 1 mM PMSF and protease inhibitor cocktail (Roche) and then incubated for 10 minutes on ice (on the rocking platform) followed by vortex and centrifugation at […] at 4 °C for 20 minutes. Cell extracts were then transferred to fresh Eppendorf tubes, assayed for protein content and then stored at -80 °C. […] Next, 10 μl of ATP was added to each well and incubated at 30 °C for 90 min, with gentle shaking. The reaction was stopped by aspirating the contents of each well and then 40 μl of PKA phosphospecific substrate antibody was added to each well and then the plate was covered with plastic wrap and incubated at room temperature for 60 min (with gentle shaking every 20 min). […] Fluorescence was then measured at 480/530 nm. […] PKA activity was then measured in the cell extracts using an ELISA assay according to the manufactures instructions. […]

Test [1] addresses T1, EPAC1 (amino acids 149–881) (Homo sapiens, UniProt O95398).
T1 construct: recombinant EPAC1 (amino acids 149–881); made in house; host or cells: bacteria
T1 sequence (O95398 149-881 isoform O95398-3): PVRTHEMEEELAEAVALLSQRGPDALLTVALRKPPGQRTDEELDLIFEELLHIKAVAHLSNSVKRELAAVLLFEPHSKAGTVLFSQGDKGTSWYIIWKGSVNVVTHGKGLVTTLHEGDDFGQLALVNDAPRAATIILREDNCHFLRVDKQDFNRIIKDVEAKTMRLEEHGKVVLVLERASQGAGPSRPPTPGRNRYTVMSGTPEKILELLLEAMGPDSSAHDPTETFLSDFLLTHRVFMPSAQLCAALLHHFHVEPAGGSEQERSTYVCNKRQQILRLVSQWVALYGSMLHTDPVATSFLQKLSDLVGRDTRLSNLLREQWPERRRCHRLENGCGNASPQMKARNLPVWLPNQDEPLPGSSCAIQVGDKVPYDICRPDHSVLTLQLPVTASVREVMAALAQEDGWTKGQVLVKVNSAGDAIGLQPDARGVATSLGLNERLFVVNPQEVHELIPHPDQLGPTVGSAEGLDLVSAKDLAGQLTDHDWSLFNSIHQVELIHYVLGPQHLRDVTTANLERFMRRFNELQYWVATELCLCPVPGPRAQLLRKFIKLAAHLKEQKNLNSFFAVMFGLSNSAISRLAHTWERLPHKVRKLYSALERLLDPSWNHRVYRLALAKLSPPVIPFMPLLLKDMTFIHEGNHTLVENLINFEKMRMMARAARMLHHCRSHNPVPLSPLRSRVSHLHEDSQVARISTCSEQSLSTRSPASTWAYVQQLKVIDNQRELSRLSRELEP
Kind of test: In vitro GEF activity assay (MANT-GDP dissociation from Rap1), EPAC1. It is filed as biochemical. The following applies: for AC50: AC50, GEF Activation (no cAMP), from kobs vs concentration. The procedure:
For this, we used the well-characterised EPAC GEF activity assay. The assay is based on the EPAC-stimulated dissociation of fluorescent MANT-GDP from recombinant Rap1 in the presence of excess non-fluorescent nucleotide.
The data are fitted as single exponential decay with off-set (red lines) to obtain the rate constants kobs, as shown in (b).
EPAC1 and EPAC2 in vitro GEF activities were calculated as previously described. Briefly, recombinant EPAC1 (amino acids 149–881) or EPAC2 (amino acids 280–993) were incubated at 100 nM with recombinant Rap1 (200 nM) preloaded with the fluorescent GDP analogue 2′/3′-O-(N-Methylanthraniloyl)guanosine 5-diphosphate (MANT-GDP) in the presence of 20 μM GDP and then the fluorescence intensity was measured at 360/450 nm (ex/em) over time. […] AC50 or IC50 values were determined from the plots of kobs against the concentration of the agonist and antagonist, respectively Table 1.

“And” between values parts separate entries of the source, which are not always exact repeats. Equal values may be shown once.

In the case of `Cc1ccc(S(=O)(=O)NC(=O)COc2ccc3ccccc3c2)c(C)c1` [I942, N-(2,4-dimethylbenzenesulfonyl)-2-(naphthalen-2-yloxy)acetamide], the “effect on PKA activity induced by cAMP” value in the test with protein kinase A (PKA) is reported as “did not significantly affect PKA activity”. In test [1], this compound registered an IC50 of approximately 300 µM. Moreover, in test [1] (absence of cAMP), the AC50 is 50 µM and ~50 µM; the “maximal induced activity, fold lower than that of cAMP” value is “around 10 fold”.
`O=C(COc1ccc2ccccc2c1)NS(=O)(=O)c1ccccc1` [I178, N-(benzenesulfonyl)-2-(naphthalen-2-yloxy)acetamide]: in test [1], the IC50 was approximately 500 µM. Also, the AC50 in test [1] (absence of cAMP) was 200 µM and ~200 µM.
